Like-named read-outs stand apart in the source and are kept apart here.
Legend:
Format in all cases: cell-based, human
HL-60 cells [1] = test: Cell cycle analysis, PI flow cytometry; settings: HL-60, 25 µM, 48 h
Description: Considering that apoptotic mechanisms are associated with the G1/S boundary cell cycle arrest and the inhibition of cell cycle progression is an important factor to control cancer cell growth, we were interested in investigating whether 7h affects the cell cycle of HL-60 cells. We analyzed the cell cycle distribution of the cells stained with PI using flow cytometry. […] This effect is in agreement with apoptotic mechanisms.
HL60 cells were plated in 6-well plates at a density of 2.0 × 10^5 cells/1.5 mL/well, and grown overnight at 37 °C in a 5% CO2 humidified atmosphere. Cells were treated with compounds 7h at 25 µM concentration or 1% DMSO (controls) for 48 h. Aliquots of cells were collected, pelleted, washed, and fixed with ethanol (70% v/v) for at least 30 min at 4 °C. Cells were twice resuspended in PBS, and after centrifugation and elimination of the supernatant, resuspended in a solution containing PBS, PI ([…], Invitrogen), RNase A (20 mg/mL, Invitrogen). After a final incubation for 1 h in the dark at 37 °C; PI signal was measured using a FACS canto II flowcytometer (BD; Mountain View, CA) with a 488 nm excitation laser, captured, and FACS Diva was used as the acquisition software. The percentage of cells in each phase was analyzed using the FCS Express v6 software. Three independent biological replicates were performed.

HL-60 cells [2] = test: Annexin-V FITC/PI apoptosis assay by flow cytometry; settings: for Q2 (late apoptosis) cells / Q3 (viable) cells: 24 h
Description: To assess an unequivocal identification of apoptosis, annexin-V FITC is commonly combined with PI to understand if cells are viable, apoptotic, or necrotic through differences in plasma membrane integrity and permeability. To better understand the ability of compound 7h (the lowest IC50 values and high SI) to induce cell death, we performed the annexin-V FITC/PI assay. HL-60 cells were treated with 7h at the dose corresponding to 5 and 50 μM by 24 h, then harvested and stained with annexin-V FITC and PI (Figure 8). […] In addition, Figure 8 illustrates a discrete increase in the apoptosis (Q2 and Q4) from 5 to 50 µM, as well as an increase in necrosis at the concentration of 50 µM.
HL60 cells were seeded into a 12-well plate (5 × 10^5 per well) and incubated in RPMI 1640 […] for 24 h at 37 °C—then, replaced with fresh medium containing the tested compound 7h at indicated concentrations for another 24 h. The cells were collected and then used the Annexin-V/PI Alexa Fluor 488 apoptosis kit (Invitrogen, Carlsbad, CA, USA) according to the instruction of manufacturer to detect the apoptosis cells, which were analyzed by flow cytometry (BD; FACScanto II, Mountain View, CA) and data were processed using FCS Express v6 software. Two independent biological replicates were performed.

MRC-5 = test: MTT cytotoxicity assay, 72 h, normal control cells; settings: Homo sapiens, MRC5, IC50 ± SD, normal fibroblasts
Description: (§1) In our study, the human cancer cell lines used were CFAPC- 1 (pancreatic adenocarcinoma); NCI-H460 (large cell lung); HL-60 (acute promyelocytic leukaemia); CACO2 (colorectal adenocarcinoma); HCT-116 (colorectal carcinoma); K562 (chronic myeloid leukaemia); MCF-7 (breast adenocarcinoma); and MRC-5 control cells (normal fibroblasts).
(§2) CFAPC-1, NCI-H460 H1975, HL-60, HCT-116, CACO2, K562, MCF-7, and MCR-5 were grown and maintained in RPMI 1640 and DMEM F12 as appropriate with 10% fetal bovine serum, 100 UI/mL penicillin–streptomycin, and cultured al 37 °C in 5% CO2 humidified atmosphere. Control cultures were treated with dimethyl sulfoxide (1%) alone at the same concentration as in the purine derivatives treatment. Cell viability was determined by trypan blue dye exclusion. Cell numbers were counted in hemocytometer by light microscopy.
(§3) Cytotoxicity assays were performed by using the MTT reduction method as described in the literature. Briefly, cancer cell lines were plated in a flat-bottom 96-wells plate at 1 × 10^4 cells per well density. Then, the cells were incubated with synthetized compounds at different concentrations (from 0.1 to 100 µM) in 200 µL of 10% fetal bovine serum-RPMI or EMEM culture medium at 37 °C for 72 h. Then, 10 µL of MTT was added at a final concentration of 0.5 mg/mL, incubated at 37 °C for 4 h, and then solubilized with 10% sodium dodecyl sulphate (SDS) in 0.1 mM HCl and incubated overnight at 37 °C. Formazan formation was measured at 570 nm in a multi-well reader (StatFax 4200).

HL-60 = test: MTT cytotoxicity assay, 72 h; settings: for IC50: Homo sapiens
Description: as §1, §2, §3

MCF-7 = test: MTT cytotoxicity assay, 72 h
Description: as §1, §2, §3

NCI-H460 = test: MTT cytotoxicity assay, 72 h
Description: as §1, §2, §3

K562 = test: MTT cytotoxicity assay, 72 h
Description: as §1, §2, §3

CFPAC-1 = test: MTT cytotoxicity assay, 72 h; settings: Homo sapiens, CFPAC-1, IC50 ± SD
Description: as §1, §2, §3

HCT-116 = test: MTT cytotoxicity assay, 72 h; settings: Homo sapiens, HCT-116, IC50 ± SD
Description: as §1, §2, §3

CACO2 = test: MTT cytotoxicity assay, 72 h; settings: Homo sapiens, Caco-2, IC50 ± SD
Description: Cytotoxicity assays were performed by using the MTT reduction method as described in the literature [23, 37]. Briefly, cancer cell lines were plated in a flat-bottom 96-wells plate at 1 × 10^4 cells per well density. Then, the cells were incubated with synthetized compounds at different concentrations (from 0.1 to 100 µM) in 200 µL of 10% fetal bovine serum-RPMI or EMEM culture medium at 37 °C for 72 h. Then, 10 µL of MTT was added at a final concentration of 0.5 mg/mL, incubated at 37 °C for 4 h, and then solubilized with 10% sodium dodecyl sulphate (SDS) in 0.1 mM HCl and incubated overnight at 37 °C. Formazan formation was measured at 570 nm in a multi-well reader (StatFax 4200).

With `O=[N+]([O-])c1ccc(N2CCN(c3nc(Cl)nc4c3ncn4C3CCCC3)CC2)cc1` [7h, 2-Chloro-9-cyclopentyl-6-(4-(4-nitrophenyl)piperazin-1-yl)-9H-purine] the “effect on cell cycle distribution” value (HL-60 cells [1]) was “accumulation of cells in S cell cycle phase”, the “Q2 (late apoptosis) cells” value (HL-60 cells [2]; HL-60, 5 μM) was 36.5% and the “Q3 (viable) cells” value (HL-60 cells [2]; HL-60, 5 μM, 5 µM) was about 55%. The “Q2 (late apoptosis) cells” value (HL-60 cells [2]; HL-60, 50 μM) was 37.7%, the “Q3 (viable) cells” value (HL-60 cells [2]; HL-60, 50 μM, 50 µM) was 38% and the viability at 5 µM (HL-60 cells [2]; Homo sapiens, HL-60, 24 h, HL-60, 5 μM, read-out: Q3 (viable) cells) was 55.2%. It also gave a viability at 50 µM (HL-60 cells [2]; Homo sapiens, HL-60, 24 h, HL-60, 50 μM, read-out: Q3 (viable) cells) of 37.8%, an IC50 (MRC-5) of over 100 µM and an IC50 (HL-60; HL-60, 72 h, MTT, 72 h, IC50 ± SD, read-out: IC50 HL-60) of 0.4 ± 0.01 µM. The IC50 (HL-60; HL-60, -logIC50 in molar concentration, Table S1, read-out: Experimental pIC50 (HL-60) (converted)) was 0.4 µM, the “Selectivity Index (SI) MRC-5/HL-60” value (HL-60; IC50 in MRC-5 / IC50 in HL-60) was over 250 and the “Selectivity Index (SI) MRC-5/MCF-7” value (MCF-7; IC50 in MRC-5 / IC50 in MCF-7) was over 64.5. The IC50 (MCF-7; MTT, 72 h, IC50 ± SD) was 1.55 ± 0.34 µM, the IC50 (NCI-H460; Homo sapiens, NCI-H460, 72 h, MTT, 72 h, IC50 ± SD, read-out: IC50 NCI-H460) was 1.3 µM and the IC50 (NCI-H460; Homo sapiens, NCI-H460, -logIC50 in molar concentration, Table S2, read-out: Experimental pIC50 (NCI-H460) (converted)) was 1.31 µM. The “Selectivity Index (SI) MRC-5/NCI-H460” value (NCI-H460; IC50 in MRC-5 / IC50 in NCI-H460) was over 76.3, the IC50 (NCI-H460; MTT, 72 h, IC50 ± SD, read-out: IC50 NCI-H460) was 1.31 ± 0.07 µM and the IC50 (K562; Homo sapiens, K562, 72 h, MTT, 72 h, IC50 ± SD) was 1.02 ± 0.04 µM. For the same molecule, the “Selectivity Index (SI) MRC-5/K562” value (K562; IC50 in MRC-5 / IC50 in K562) was over 98, the IC50 (CFPAC-1) was over 100 µM and the IC50 (HCT-116) was 30 ± 7.1 µM. The IC50 (CACO2) was over 100 µM.

Reference: publication PMC6981454, “Promising 2,6,9-Trisubstituted Purine Derivatives for Anticancer Compounds: Synthesis, 3D-QSAR, and Preliminary Biological Assays” (International Journal of Molecular Sciences, 2019)
